ChEMBL document CHEMBL6153025, “Multidrug-resistant bacteria quorum-sensing inhibitors: A particular focus on Pseudomonasaeruginosa” (Eur J Med Chem, 2025)

Legend:
Pseudomonas aeruginosa [1] = assay: Antibiofilm activity against Pseudomonas aeruginosa PAO1 assessed as inhibition of biofilm formation at 1 to 100 uM incubated for 24 hrs by crystal violet staining based assay relative to control; assay type: functional; parameters: scale not given: the % may be the effect or the level left; conditions: dose 1-100 µM
Pseudomonas aeruginosa [2] = assay: Inhibition of rhamnolipid production in Pseudomonas aeruginosa PAO1 incubated for 24 hrs by spectrophotometric analysis; assay type: functional, organism-based; conditions: PAO1, 24 h
Pseudomonas aeruginosa [3] = assay: Antivirulence activity against Pseudomonas aeruginosa PA24 assessed as reduction in protease production incubated for 1 hr by absorbance based analysis relative to control; assay type: functional; parameters: scale not given: the % may be the effect or the level left
Pseudomonas aeruginosa [4] = assay: Antibiofilm activity against Pseudomonas aeruginosa PAO1 assessed as reduction in biofilm formation at 16 ug/ml incubated for 2 to 4 hrs by crystal violet staining based analysis relative to control; assay type: functional; parameters: scale not given: the % may be the effect or the level left; conditions: dose 16 µg/ml; time 2-4 hrs
Pseudomonas aeruginosa [5] = assay: Antivirulence activity against Pseudomonas aeruginosa PA14 assessed as reduction in pyocyanin production incubated for 1 hr by absorbance based analysis relative to control; assay type: functional; parameters: scale not given: the % may be the effect or the level left
Pseudomonas aeruginosa [6] = assay: Antibiofilm activity against Pseudomonas aeruginosa PAO1 assessed as reduction in biofilm formation at 1/4 sub-MIC doses incubated for 24 hrs by crystal violet staining based analysis relative to control; assay type: functional; parameters: scale not given: the % may be the effect or the level left
Pseudomonas aeruginosa [7] = assay: Antibiofilm activity against Pseudomonas aeruginosa PA14 assessed as reduction in biofilm formation at 1/2 sub-MIC doses incubated for 24 hrs by crystal violet staining based analysis relative to control; assay type: functional; parameters: scale not given: the % may be the effect or the level left
Pseudomonas aeruginosa [8] = assay: Antivirulence activity against Pseudomonas aeruginosa PA22 assessed as reduction in protease production incubated for 1 hr by absorbance based analysis relative to control; assay type: functional; parameters: scale not given: the % may be the effect or the level left
Pseudomonas aeruginosa [9] = assay: Antivirulence activity against Pseudomonas aeruginosa PAO1 assessed as reduction in hemolysin activity incubated for 1 hr by absorbance based analysis relative to control; assay type: functional; parameters: scale not given: the % may be the effect or the level left
Pseudomonas aeruginosa [10] = assay: Antibiofilm activity against Pseudomonas aeruginosa PAO1 assessed as reduction in biofilm formation at 1/2 sub-MIC doses incubated for 24 hrs by crystal violet staining based analysis relative to control; assay type: functional; parameters: scale not given: the % may be the effect or the level left
Pseudomonas aeruginosa [11] = assay: Antivirulence activity against Pseudomonas aeruginosa PA21 assessed as reduction in pyocyanin production incubated for 1 hr by absorbance based analysis relative to control; assay type: functional; parameters: scale not given: the % may be the effect or the level left
Pseudomonas aeruginosa [12] = assay: Antibiofilm activity against Pseudomonas aeruginosa PA22 assessed as reduction in biofilm formation at 1/4 sub-MIC doses incubated for 24 hrs by crystal violet staining based analysis relative to control; assay type: functional; parameters: scale not given: the % may be the effect or the level left
Pseudomonas aeruginosa [13] = assay: Antivirulence activity against Pseudomonas aeruginosa PA23 assessed as reduction in hemolysin activity incubated for 1 hr by absorbance based analysis relative to control; assay type: functional; parameters: scale not given: the % may be the effect or the level left
Pseudomonas aeruginosa [14] = assay: Antivirulence activity against Pseudomonas aeruginosa PA24 assessed as reduction in hemolysin activity incubated for 1 hr by absorbance based analysis relative to control; assay type: functional; parameters: scale not given: the % may be the effect or the level left
Pseudomonas aeruginosa [15] = assay: Antibiofilm activity against Pseudomonas aeruginosa PA22 assessed as reduction in biofilm formation at 1/2 sub-MIC doses incubated for 24 hrs by crystal violet staining based analysis relative to control; assay type: functional; parameters: scale not given: the % may be the effect or the level left
Pseudomonas aeruginosa [16] = assay: Antivirulence activity against Pseudomonas aeruginosa PA22 assessed as reduction in hemolysin activity incubated for 1 hr by absorbance based analysis relative to control; assay type: functional; parameters: scale not given: the % may be the effect or the level left
Pseudomonas aeruginosa [17] = assay: Antivirulence activity against Pseudomonas aeruginosa PA21 assessed as reduction in hemolysin activity incubated for 1 hr by absorbance based analysis relative to control; assay type: functional; parameters: scale not given: the % may be the effect or the level left
Pseudomonas aeruginosa [18] = assay: Antivirulence activity against Pseudomonas aeruginosa PA22 assessed as reduction in pyocyanin production incubated for 1 hr by absorbance based analysis relative to control; assay type: functional; parameters: scale not given: the % may be the effect or the level left
Pseudomonas aeruginosa [19] = assay: Antivirulence activity against Pseudomonas aeruginosa PA14 assessed as reduction in protease production incubated for 1 hr by absorbance based analysis relative to control; assay type: functional; parameters: scale not given: the % may be the effect or the level left
Pseudomonas aeruginosa [20] = assay: Antibiofilm activity against Pseudomonas aeruginosa PA21 assessed as reduction in biofilm formation at 1/2 sub-MIC doses incubated for 24 hrs by crystal violet staining based analysis relative to control; assay type: functional; parameters: scale not given: the % may be the effect or the level left
Pseudomonas aeruginosa [21] = assay: Antibiofilm activity against Pseudomonas aeruginosa PA24 assessed as reduction in biofilm formation at 1/2 sub-MIC doses incubated for 24 hrs by crystal violet staining based analysis relative to control; assay type: functional; parameters: scale not given: the % may be the effect or the level left
Pseudomonas aeruginosa [22] = assay: Antivirulence activity against Pseudomonas aeruginosa PAO1 assessed as reduction in pyocyanin production incubated for 1 hr by absorbance based analysis relative to control; assay type: functional; parameters: scale not given: the % may be the effect or the level left
Pseudomonas aeruginosa [23] = assay: Antivirulence activity against Pseudomonas aeruginosa PA24 assessed as reduction in pyocyanin production incubated for 1 hr by absorbance based analysis relative to control; assay type: functional; parameters: scale not given: the % may be the effect or the level left
Pseudomonas aeruginosa [24] = assay: Antivirulence activity against Pseudomonas aeruginosa PA23 assessed as reduction in pyocyanin production incubated for 1 hr by absorbance based analysis relative to control; assay type: functional; parameters: scale not given: the % may be the effect or the level left
Pseudomonas aeruginosa [25] = assay: Antivirulence activity against Pseudomonas aeruginosa PA23 assessed as reduction in protease production incubated for 1 hr by absorbance based analysis relative to control; assay type: functional; parameters: scale not given: the % may be the effect or the level left
Pseudomonas aeruginosa [26] = assay: Antibiofilm activity against Pseudomonas aeruginosa PA23 assessed as reduction in biofilm formation at 1/4 sub-MIC doses incubated for 24 hrs by crystal violet staining based analysis relative to control; assay type: functional; parameters: scale not given: the % may be the effect or the level left
Pseudomonas aeruginosa [27] = assay: Antivirulence activity against Pseudomonas aeruginosa PAO1 assessed as reduction in protease production incubated for 1 hr by absorbance based analysis relative to control; assay type: functional; parameters: scale not given: the % may be the effect or the level left
Pseudomonas aeruginosa [28] = assay: Antibiofilm activity against Pseudomonas aeruginosa PA14 assessed as reduction in biofilm formation at 1/4 sub-MIC doses incubated for 24 hrs by crystal violet staining based analysis relative to control; assay type: functional; parameters: scale not given: the % may be the effect or the level left
Pseudomonas aeruginosa [29] = assay: Antivirulence activity against Pseudomonas aeruginosa PA21 assessed as reduction in protease production incubated for 1 hr by absorbance based analysis relative to control; assay type: functional; parameters: scale not given: the % may be the effect or the level left
Pseudomonas aeruginosa [30] = assay: Antibiofilm activity against Pseudomonas aeruginosa PA24 assessed as reduction in biofilm formation at 1/4 sub-MIC doses incubated for 24 hrs by crystal violet staining based analysis relative to control; assay type: functional; parameters: scale not given: the % may be the effect or the level left
Pseudomonas aeruginosa [31] = assay: Antivirulence activity against Pseudomonas aeruginosa PA14 assessed as reduction in hemolysin activity incubated for 1 hr by absorbance based analysis relative to control; assay type: functional; parameters: scale not given: the % may be the effect or the level left
Pseudomonas aeruginosa [32] = assay: Antibiofilm activity against Pseudomonas aeruginosa PA21 assessed as reduction in biofilm formation at 1/4 sub-MIC doses incubated for 24 hrs by crystal violet staining based analysis relative to control; assay type: functional; parameters: scale not given: the % may be the effect or the level left
Pseudomonas aeruginosa [33] = assay: Antibiofilm activity against Pseudomonas aeruginosa PA23 assessed as reduction in biofilm formation at 1/2 sub-MIC doses incubated for 24 hrs by crystal violet staining based analysis relative to control; assay type: functional; parameters: scale not given: the % may be the effect or the level left
[34] = Inhibition of quorum sensing system in Pseudomonas aeruginosa PA14 assessed as inhibition of pyocyanin production at 128 ug/ml relative to control; conditions: dose 128.0 µg/ml
[35] = target: T1, Transcriptional activator protein LasR (Pseudomonas aeruginosa (strain ATCC 15692 / PAO1 / 1C / PRS 101 / LMG12228)) (UniProt P25084); assay: Inhibition of LasR-mediated quorum sensing system in Pseudomonas aeruginosa PAO1 at 128 ug/ml relative to control; conditions: dose 128.0 µg/ml
T1 sequence (whole entry): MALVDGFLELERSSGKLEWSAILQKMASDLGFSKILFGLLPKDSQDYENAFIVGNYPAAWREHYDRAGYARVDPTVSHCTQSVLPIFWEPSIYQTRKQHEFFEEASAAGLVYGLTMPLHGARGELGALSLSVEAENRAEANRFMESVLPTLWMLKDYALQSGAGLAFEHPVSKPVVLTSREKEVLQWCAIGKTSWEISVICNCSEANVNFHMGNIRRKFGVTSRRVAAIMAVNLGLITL

Pseudomonas aeruginosa [36] = assay: Antibiofilm activity against Pseudomonas aeruginosa PA14 assessed as inhibition of biofilm formation at 16 ug/ml incubated for 24 hrs by microscopic analysis relative to control; assay type: functional; parameters: scale not given: the % may be the effect or the level left; conditions: dose 16 µg/ml
Pseudomonas aeruginosa [37] = assay: Antibiofilm activity against Pseudomonas aeruginosa PAO1 assessed as inhibition of biofilm formation at 250 ug/ml incubated for 24 hrs by crystal violet staining based assay relative to control; assay type: functional; parameters: scale not given: the % may be the effect or the level left; conditions: dose 250 µg/ml
Pseudomonas aeruginosa [38] = assay: Anti-virulence effect in Pseudomonas aeruginosa PAO1 assessed as inhibition of pyocyanin production at 250 ug/ml relative to control; assay type: functional; parameters: scale not given: the % may be the effect or the level left; conditions: dose 250 µg/ml
Pseudomonas aeruginosa [39] = assay: Anti-virulence effect in Pseudomonas aeruginosa PAO1 assessed as inhibition of rhamnolipid production at 250 ug/ml relative to control; assay type: functional; parameters: scale not given: the % may be the effect or the level left; conditions: dose 250 µg/ml
Pseudomonas aeruginosa [40] = assay: Downregulation of rhlA mRNA level in Pseudomonas aeruginosa PAO1 at 32 ug/ml relative to control; assay type: functional; conditions: dose 32 µg/ml
[41] = Inhibition of quorum sensing system in Pseudomonas aeruginosa PAO1-pqsA-gfp assessed as reduction in fluorescence intensity incubated for 12 hrs by GFP reporter strain assay
[42] = Inhibition of quorum sensing system in Pseudomonas aeruginosa PAO1- rhlA-gfp assessed as reduction in fluorescence intensity measured for 12 hrs by GFP reporter strain assay
Pseudomonas aeruginosa [43] = assay: Antivirulence activity against Pseudomonas aeruginosa PAO1 assessed as reduction in pyocyanin level at 10 uM relative to control; assay type: functional; parameters: scale not given: the % may be the effect or the level left
Pseudomonas aeruginosa [44] = assay: Antibiofilm activity against logarithmic growth phase Pseudomonas aeruginosa PAO1 assessed as inhibition of biofilm formation incubated for 20 hrs by crystal violet staining based analysis; assay type: functional, organism-based; conditions: PAO1, 20 h
[45] = Inhibition of quorum sensing system in Pseudomonas aeruginosa PAO1 expressing lasB-gfp
Pseudomonas aeruginosa [46] = assay: Antibiofilm activity against Pseudomonas aeruginosa ATCC 27853 assessed as reduction in biofilm biomass at 16 ug/ml relative to control; assay type: functional; parameters: scale not given: the % may be the effect or the level left; conditions: dose 16 µg/ml
Pseudomonas aeruginosa [47] = assay: Inhibition of rhamnolipid production in Pseudomonas aeruginosa PAO1; assay type: functional, organism-based
Pseudomonas aeruginosa [48] = assay: Inhibition of pyocyanin production in Pseudomonas aeruginosa PAO1; assay type: functional, organism-based
Pseudomonas aeruginosa [49] = assay: Anti-virulence activity in Pseudomonas aeruginosa PAO1 assessed as reduction in elastase production; assay type: functional, organism-based

O=C(/C=C/c1ccc(O)c(O)c1)c1ccc(O)cc1O [BUTEIN]
Activity (Pseudomonas aeruginosa [1]): 72.45% | IC50 (Pseudomonas aeruginosa [2]): 50 µM

COC(=O)c1cc(O)c(O)c(O)c1 [GALLIC ACID METHYL ESTER]
Activity (Pseudomonas aeruginosa [3]): 42.4% | Activity (Pseudomonas aeruginosa [4]): 63% | Activity (Pseudomonas aeruginosa [5]): 66.5% | Activity (Pseudomonas aeruginosa [6]): 77.6% | Activity (Pseudomonas aeruginosa [7]): 81.6% | Activity (Pseudomonas aeruginosa [8]): 47.3% | Activity (Pseudomonas aeruginosa [9]): 63.9% | Activity (Pseudomonas aeruginosa [10]): 83% | Activity (Pseudomonas aeruginosa [11]): 87.3% | Activity (Pseudomonas aeruginosa [12]): 81.5% | Activity (Pseudomonas aeruginosa [13]): 49.8% | Activity (Pseudomonas aeruginosa [14]): 55.7% | Activity (Pseudomonas aeruginosa [15]): 82.2% | Activity (Pseudomonas aeruginosa [16]): 57.8% | Activity (Pseudomonas aeruginosa [17]): 63.2% | Activity (Pseudomonas aeruginosa [18]): 80.9% | Activity (Pseudomonas aeruginosa [19]): 40.1% | Activity (Pseudomonas aeruginosa [20]): 83.3% | Activity (Pseudomonas aeruginosa [21]): 83.7% | Activity (Pseudomonas aeruginosa [22]): 68.1% | Activity (Pseudomonas aeruginosa [23]): 78.7% | Activity (Pseudomonas aeruginosa [24]): 79.6% | Activity (Pseudomonas aeruginosa [25]): 27.6% | Activity (Pseudomonas aeruginosa [26]): 77.9% | Activity (Pseudomonas aeruginosa [27]): 40.3% | Activity (Pseudomonas aeruginosa [28]): 78.6% | Activity (Pseudomonas aeruginosa [29]): 53.6% | Activity (Pseudomonas aeruginosa [30]): 78.1% | Activity (Pseudomonas aeruginosa [31]): 60.5% | Activity (Pseudomonas aeruginosa [32]): 77.8% | Activity (Pseudomonas aeruginosa [33]): 83.8%

O=C(CN1CCOCC1)Nc1cccc([N+](=O)[O-])c1
inhibition [34]: 75% | inhibition [35]: 45.1% | Activity (Pseudomonas aeruginosa [36]): 77%

O=C1CCc2ccccc2O1 [DIHYDROCOUMARIN]
Activity (Pseudomonas aeruginosa [4]): 36% | Activity (Pseudomonas aeruginosa [37]): 46.1% | Activity (Pseudomonas aeruginosa [38]): 87.25% | Activity (Pseudomonas aeruginosa [39]): 48.94%

C=C1CC(=O)N(c2ccc(Br)cc2)C1=O
Activity (Pseudomonas aeruginosa [40]): 78% | IC50 [41]: 2.51 µM | IC50 [42]: 6.67 µM | Activity (Pseudomonas aeruginosa [43]): 55% | IC50 (Pseudomonas aeruginosa [44]): 10 µM

O=C(/C=C/c1ccc(O)c(O)c1)OCCc1ccc(Br)cc1
IC50 [45]: 20 µM | Activity (Pseudomonas aeruginosa [46]): 33.69% | IC50 (Pseudomonas aeruginosa [47]): 1.25 µM | IC50 (Pseudomonas aeruginosa [48]): 20 µM | IC50 (Pseudomonas aeruginosa [49]): 20 µM
